According to patent US20240350440A1, “EXTRACTION OF ABSCISIC ACID FROM STRAWBERRIES” (KING FAISAL UNIVERSITY, priority 2023, published 2024):
Marks after values point to notes of the source that are not given here.

Experiments:
Type in all cases: in vivo
[1] = system: albino rat after inducing myocardial infarction disease; test: Oxidative stress markers and antioxidant enzymes in adrenaline-induced myocardial infarction; conditions: MI induced by high dose of adrenaline
Experimental: (§1) The extracted and purified ABA was tested on an albino rat after inducing myocardial infarction disease by using a high dose of adrenaline at Alexandria faculty of medicine and all tests of examination were performed (chemical, electrocardiograph Histological).

[2] = system: albino rat after inducing myocardial infarction disease; test: Electrocardiogram assessment in adrenaline-induced myocardial infarction; conditions: MI induced by high dose of adrenaline
Experimental: as §1

[3] = system: albino rat after inducing myocardial infarction disease; test: Histopathological assessment of H&E-stained heart tissue; parameters: key: grade 1 (normal histological the appearance of the myocardium); grade 2 (focal necrosis of myocardium); grade 3 (focal necrosis of myocardial fiber with neutrophil infiltration and interstitial edema); grade 4 (extensive necrosis of myocardial fiber with hemorrhage, interstitial edema, marked neutrophil infiltration and severe myofibrillary degeneration); conditions: MI rat
Experimental: as §1
With reference to the Figures, the histopathological assessment of H&E-stained (hematoxylin and eosin stained) heart tissue was scored according to severity of myocardial changes: grade 1 (normal histological the appearance of the myocardium), grade 2 (focal necrosis of myocardium), grade 3 (focal necrosis of myocardial fiber with neutrophil infiltration and interstitial edema), and grade 4 (extensive necrosis of myocardial fiber with hemorrhage, interstitial edema, marked neutrophil infiltration and severe myofibrillary degeneration).

[4] = system: albino rat after inducing myocardial infarction disease; test: Biological cardiac markers in adrenaline-induced myocardial infarction; conditions: MI induced by high dose of adrenaline
Experimental: as §1

Compound: CC1=CC(=O)CC(C)(C)C1(O)/C=C/C(C)=C\C(=O)O (centres unmarked) [Extracted ABA, abscisic acid]
- Catalase [1]: 97 ± 1.73^bc U/g protein
- GSH [1]: 21.66 ± 0.39^a μmol/g protein
- MDA [1]: 5.68 ± 0.27^bcd μmol/g protein
- NO [1]: 47.78 ± 4.49^bc μM/g protein
- COP (mean ml/min) [2]: 18.57 ± 1.04^b ml/min
- HR (mean b/min) [2]: 247.4 ± 9.69^cd b/min
- RR (interval/sec) [2]: 0.73 ± 0.034^b sec
- ST height [2]: 42.98 ± 4.05^b mm
- carotid flow mean [2]: 18.06 ± 1.15^b ml/min
- histopathological score, severity of myocardial changes [3]: grade 3
- CK-MB [4]: 1.14 ± 0.02^bc U/L
- LDH [4]: 482.67 ± 4.63^bc U/L
- Troponin [4]: 1.71 ± 0.02^b ng/ml

Compound: CC1=CC(=O)CC(C)(C)[C@@]1(O)/C=C/C(C)=C\C(=O)O [Standard ABA, abscisic acid]
- Catalase [1]: 112 ± 23.09^abc U/g protein
- GSH [1]: 20.01 ± 2.27^a μmol/g protein
- MDA [1]: 6.13 ± 1.34^bc μmol/g protein
- NO [1]: 48.61 ± 5.61^bc μM/g protein
- COP (mean ml/min) [2]: 17.52 ± 0.1^b ml/min
- HR (mean b/min) [2]: 255.77 ± 1.23^bc b/min
- RR (interval/sec) [2]: 0.7 ± 0.003^c sec
- ST height [2]: 39.33 ± 2.15^b mm
- carotid flow mean [2]: 17.4 ± 0.16^b ml/min
- histopathological score, severity of myocardial changes [3]: grade 3
- CK-MB [4]: 1.22 ± 0.03^b U/L
- LDH [4]: 587.33 ± 30.12^b U/L
- Troponin [4]: 1.72 ± 0.05^b ng/ml
